Data set [1] concerns Chlamydia trachomatis. Briefly: Anti-chlamydia activity against Chlamydia trachomatis serovar L2 infected in human HEp-2 cells assessed as inhibition of inclusion growth measured treated 8 hrs POI followed measured after 16 hrs by immunofluorescence assay. Particulars: serovar L2, HEp-2. The format is functional, organism-based.
The subject of data set [2] is HEp-2. The data set is described as follows: Cytotoxicity against human HEp-2 cells assessed as cell viability at 4 to 128 ug/ml measured after 24 hrs by XTT assay. The format is toxicity, cell-based. The conditions noted are these: hep-2, 24 h, dose 4-128 µg/ml. On the technique in general: Formazan colour is commonly taken as a measure of viable cells.
Data set [3] is described as follows: Cytotoxicity against human HEC-1-A cells assessed as cell survival at 128 ug/ml measured after 24 hrs by XTT assay. The conditions noted are these: at 128 µg/mL, read-out: Survival. The format is toxicity, cell-based.
A short description of data set [4]: Stability of the compound in simulated gastric fluid at pH 1.2 measured after 24 hrs by HPLC analysis. The format is ADME. The conditions noted are these: simulated gi fluid, pH 1.2, 24 h.
The test system of data set [5] is Staphylococcus aureus. The data set is described as follows: Antibacterial activity against Staphylococcus aureus USA 300 JE2 assessed as bacterial death measured upto 256 ug/ml. The format is functional, organism-based. Particulars: dose <= 256.0 µg/ml.
Data set [6] relates to Escherichia coli. The data set is described as follows: Antibacterial activity against Escherichia coli K12 assessed as bacterial death measured upto 256 ug/ml. The format is functional, organism-based. Particulars: dose <= 256.0 µg/ml.
Data set [7] concerns Chlamydia trachomatis. Briefly: Anti-chlamydia activity against Chlamydia trachomatis serovar L2 infected in human HEp-2 cells assessed as inhibition of inclusion growth measured at 0.78 to 50 ug/ml treated 8 hrs POI followed measured after 16 hrs by immunofluorescence assay. The format is functional, organism-based. Particulars: dose 0.78-50 µg/ml.

≈ marks a conversion by molar mass, not a printed value. Calls of active or inactive are those of the source. No cut-off for these calls is given here.

We go through 26 compounds from ChEMBL document CHEMBL5325479, “Synthesis and biological evaluation of sulfonylpyridine derivatives as potential anti-chlamydia agents” (Bioorg Med Chem, 2023).

Turning to `Cc1ccccc1SCCNC(=O)C(C)(C)S(=O)(=O)c1ccc(C(F)(F)F)cn1`, the IC50 (in general, the concentration needed to halve the response being measured) in data set [1] turned out to be 17.8 µg/mL (≈ 39.8 µM). The same measure, in the same setting: the result for `COc1ccccc1OCCNC(=O)C(C)(C)S(=O)(=O)c1ccc(C(F)(F)F)cn1` reads 39.8 µg/mL (≈ 89.2 µM). `Cc1ccc(OCCNC(=O)C(C)(C)S(=O)(=O)c2ccc(C(F)(F)F)cn2)cc1`: the IC50 in data set [1] worked out at 29.8 µg/mL (≈ 69.3 µM). Consider `CC(C)(C(=O)NCCCSc1ccc(Cl)cc1)S(=O)(=O)c1ccc(Br)cn1`, for which the IC50 in data set [1] is 2.33 µg/mL (≈ 4.74 µM). Besides, the Activity result in data set [2] is listed as “Toxic”. In data set [3], the viability at 24 h, 128 ug/ml was determined as 100%. For the same compound, the Stability result in data set [4] was “Stable”. Moreover, the outcome in data set [5] and in data set [6] was inactive. As for `CC(C)(C(=O)NCCNc1ccccc1)S(=O)(=O)c1ccc(C(F)(F)F)cn1`, the half-maximal inhibitory concentration (IC50) in data set [1] came to 14.2 µg/mL (≈ 34.3 µM). Consider `CC(C)(C(=O)NCCNc1ccccc1)S(=O)(=O)c1ccc(Br)cn1`, for which the IC50 in data set [1] was 11.7 µg/mL (≈ 27.3 µM). Consider `CC(C)(C(=O)NCCOc1ccc([N+](=O)[O-])cc1)S(=O)(=O)c1ccc(C(F)(F)F)cn1`, for which the inhibition result in data set [7] was “inactive”.

Take `CC(C)(C(=O)NCCCSc1ccc(Cl)cc1)S(=O)(=O)c1ccc(C(F)(F)F)cn1`: the IC50 in data set [1] came out at 3.88 µg/mL (≈ 8.07 µM). Still for that read-out and setting: the result for `Cc1ccccc1OCCNC(=O)C(C)(C)S(=O)(=O)c1ccc(Br)cn1` reads 18.3 µg/mL (≈ 41.5 µM); that for `CC(C)(C(=O)NCCCOc1ccc(Cl)cc1)S(=O)(=O)c1ccc(C(F)(F)F)cn1`, 26.1 µg/mL (≈ 56.2 µM).

Take `Cc1ccc(SCCCNC(=O)C(C)(C)S(=O)(=O)c2ccc(Br)cn2)cc1`: the IC50 in data set [1] came out at 16.1 µg/mL (≈ 34.2 µM). On to `CC(C)(C(=O)NCCCSc1ccccc1)S(=O)(=O)c1ccc(C(F)(F)F)cn1`, for which the 50% inhibitory concentration (IC50) in data set [1] stood at 31.4 µg/mL (≈ 70.3 µM). `CN(CCSc1ccc(Cl)cc1)C(=O)C(C)(C)S(=O)(=O)c1ccc(C(F)(F)F)cn1`: in data set [7], the inhibition entry was “inactive”.

As to `CC(C)(C(=O)NCCCSc1cccc(Cl)c1)S(=O)(=O)c1ccc(C(F)(F)F)cn1`, the IC50 in data set [1] was found to be 14.8 µg/mL (≈ 30.7 µM).

On to `COc1ccc(OCCNC(=O)C(C)(C)S(=O)(=O)c2ccc(C(F)(F)F)cn2)cc1`, for which the IC50 in data set [1] worked out at 42.2 µg/mL (≈ 94.4 µM). For `CC(=O)N(CCNC(=O)C(C)(C)S(=O)(=O)c1ccc(C(F)(F)F)cn1)c1ccccc1`, the inhibition result in data set [7] was “inactive”. Take `Cc1ccccc1SCCCNC(=O)C(C)(C)S(=O)(=O)c1ccc(C(F)(F)F)cn1`: in data set [1], the half-inhibitory concentration (IC50) was 32.5 µg/mL (≈ 70.7 µM). Regarding `Cc1ccccc1OCCCNC(=O)C(C)(C)S(=O)(=O)c1ccc(Br)cn1`, the IC50 in data set [1] was found to be 3.47 µg/mL (≈ 7.62 µM). `COc1ccccc1OCCCNC(=O)C(C)(C)S(=O)(=O)c1ccc(C(F)(F)F)cn1`: the inhibition result in data set [7] is “inactive”. Turning to `Cc1ccc(SCCNC(=O)C(C)(C)S(=O)(=O)c2ccc(C(F)(F)F)cn2)cc1`, the half-inhibitory concentration (IC50) in data set [1] was determined as 23.5 µg/mL (≈ 52.6 µM). Still for that read-out and setting: the result for `Cc1ccccc1OCCNC(=O)C(C)(C)S(=O)(=O)c1ccc(C(F)(F)F)cn1` reads 28.9 µg/mL (≈ 67.2 µM). With `Cc1ccc(OCCNC(=O)C(C)(C)S(=O)(=O)c2ccc(Br)cn2)cc1`, the inhibition entry in data set [7] is “inactive”. As for `CC(C)(C(=O)NCCc1ccncc1)S(=O)(=O)c1ccc(C(F)(F)F)cn1`, the inhibition entry in data set [7] is “inactive”. For the compound `Cc1ccccc1OCCCNC(=O)C(C)(C)S(=O)(=O)c1ccc(C(F)(F)F)cn1`, the IC50 in data set [1] stood at 20.4 µg/mL (≈ 46 µM). For the compound `CC(C)(C(=O)NCCCC1=NC2C=CC=CC2=N1)S(=O)(=O)c1ccc(C(F)(F)F)cn1` (stereo unspecified), in data set [7], the inhibition entry was “inactive”.

Take `CC(C)(C(=O)NCCSc1cccc(Cl)c1)S(=O)(=O)c1ccc(C(F)(F)F)cn1`: the IC50 in data set [1] is 17.9 µg/mL (≈ 38.3 µM).
